Experimental findings from ChEMBL document CHEMBL1148424, “Synthesis of novel melanocortin 4 receptor agonists and antagonists containing a succinamide core” (Bioorg Med Chem Lett, 2004) are described below.

Experiment [1] addresses T1, Melanocortin receptor 4 (Homo sapiens, UniProt P32245). The experiment in a line: Inhibitory activity against [125I]NDP-alpha-MSH binding to the human melanocortin 4 receptor.
Experiment [2] concerns the target T1, Melanocortin receptor 4. The experiment in a line: Percentage of maximal response with respect to alpha-MSH in cells expressing the melanocortin 4 receptor. It is filed as functional.
Experiment [3] has as its target T1, Melanocortin receptor 4. The experiment in a line: Intracellular level of cAMP in cells expressing the melanocortin 4 receptor. It is filed as functional.
Experiment [4] addresses Melanocyte-stimulating hormone receptor (Mus musculus, UniProt Q01727). The experiment in a line: Inhibitory activity against mouse melanocortin 1 receptor.
The target of the next experiment is Melanocortin receptor 3 (Homo sapiens, UniProt P41968). In words: Inhibitory activity against human melanocortin 3 receptor.

A value given as a limit tells only on which side of the number the result lay.

T1 sequence (P32245 whole entry): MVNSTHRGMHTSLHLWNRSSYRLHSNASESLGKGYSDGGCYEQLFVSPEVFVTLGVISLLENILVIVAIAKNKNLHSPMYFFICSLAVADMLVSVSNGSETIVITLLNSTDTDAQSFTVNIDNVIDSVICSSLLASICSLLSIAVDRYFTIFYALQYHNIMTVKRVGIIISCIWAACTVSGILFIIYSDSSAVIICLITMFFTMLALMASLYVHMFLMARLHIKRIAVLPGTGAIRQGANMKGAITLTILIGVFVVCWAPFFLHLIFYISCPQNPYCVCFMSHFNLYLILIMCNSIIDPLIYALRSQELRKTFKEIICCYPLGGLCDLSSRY
Melanocyte-stimulating hormone receptor, sequence (Q01727 whole entry): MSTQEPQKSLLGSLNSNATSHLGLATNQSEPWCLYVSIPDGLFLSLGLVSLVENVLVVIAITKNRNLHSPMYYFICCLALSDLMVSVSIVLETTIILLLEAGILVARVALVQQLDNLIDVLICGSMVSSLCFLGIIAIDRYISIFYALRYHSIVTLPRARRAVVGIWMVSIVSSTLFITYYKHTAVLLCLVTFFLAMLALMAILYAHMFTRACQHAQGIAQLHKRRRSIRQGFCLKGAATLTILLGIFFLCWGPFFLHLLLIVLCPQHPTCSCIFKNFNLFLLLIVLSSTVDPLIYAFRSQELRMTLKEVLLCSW
Melanocortin receptor 3, sequence (P41968 whole entry): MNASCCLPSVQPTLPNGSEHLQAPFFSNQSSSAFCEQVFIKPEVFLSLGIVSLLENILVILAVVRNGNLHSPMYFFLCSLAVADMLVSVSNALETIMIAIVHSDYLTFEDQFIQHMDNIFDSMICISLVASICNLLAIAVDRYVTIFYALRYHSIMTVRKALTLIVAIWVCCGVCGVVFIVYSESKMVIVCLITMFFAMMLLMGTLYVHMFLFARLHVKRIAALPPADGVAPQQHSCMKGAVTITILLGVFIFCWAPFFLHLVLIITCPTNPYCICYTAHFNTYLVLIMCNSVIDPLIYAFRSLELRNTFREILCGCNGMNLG

As for `CS(=O)(=O)N(CC1CC1)c1ccccc1N1CCN(C(=O)[C@H](CC(=O)N2CCN(CC3CC3)CC2)Cc2ccc(Cl)cc2)CC1`, at Melanocortin receptor 4 [1], the IC50 is 0.003 µM. Besides, on Melanocortin receptor 4 [2], the Activation was determined as 0%. The EC50 on Melanocortin receptor 4 [3] is more than 10 µM.

Take `CCCN1CCN(C(=O)C[C@H](Cc2ccc(Cl)cc2)C(=O)N2CCN(c3ccccc3N(CC3CC3)S(C)(=O)=O)CC2)CC1`: the IC50 on Melanocortin receptor 4 [1] was 0.0089 µM; in experiment [4], more than 10 µM; against Melanocortin receptor 3, more than 10 µM. The molecule further came in with an Activation on Melanocortin receptor 4 [2] of 0%. The same molecule came in with an EC50 at Melanocortin receptor 4 [3] of more than 10 µM.

For the molecule `CCN(C(C)=O)C(C)c1ccccc1N1CCN(C(=O)[C@H](CC(=O)NCc2ccccn2)Cc2ccc(Cl)cc2)CC1` (some centres undefined), the IC50 on Melanocortin receptor 4 [1] worked out at 0.032 µM. Besides, the Activation at Melanocortin receptor 4 [2] was 95%. Also, at Melanocortin receptor 4 [3], the EC50 was determined as 0.037 µM.

`CCN(C(C)=O)C(C)c1ccccc1N1CCN(C(=O)[C@H](CC(=O)NCc2ccccc2F)Cc2ccc(Cl)cc2)CC1` (some centres undefined): the results for the IC50 (on Melanocortin receptor 4 [1]; in experiment [4]; against Melanocortin receptor 3) were 0.013 µM, more than 1.6 µM and more than 10 µM, respectively. This molecule also showed an Activation at Melanocortin receptor 4 [2] of 100%. In addition, a half-maximal effect at Melanocortin receptor 4 [3] (EC50) was put at 0.089 µM.

Consider `CC(=O)N1CCN(C(=O)C[C@H](Cc2ccc(Cl)cc2)C(=O)N2CCN(c3ccccc3N(CC3CC3)S(C)(=O)=O)CC2)CC1`, for which the IC50 at Melanocortin receptor 4 [1] was 0.011 µM; in experiment [4], more than 10 µM; against Melanocortin receptor 3 it was more than 10 µM. Moreover, the Activation at Melanocortin receptor 4 [2] was 0%. Moreover, the half-maximal effective concentration (EC50) on Melanocortin receptor 4 [3] was more than 10 µM.

With `CC(C)(C)CC(=O)N1CCN(C(=O)C[C@H](Cc2ccc(Cl)cc2)C(=O)N2CCN(c3ccccc3N(CC3CC3)S(C)(=O)=O)CC2)CC1`, the results for the IC50 (on Melanocortin receptor 4 [1]; in experiment [4]; against Melanocortin receptor 3) were less than 0.0001 µM, more than 1.8 µM and more than 10 µM, respectively. This molecule also displayed an Activation on Melanocortin receptor 4 [2] of 45%. Further, the EC50 on Melanocortin receptor 4 [3] worked out at 0.074 µM.

For `CCN(C(C)=O)C(C)c1ccccc1N1CCN(C(=O)[C@H](CC(=O)N2CCC2)Cc2ccc(Cl)cc2)CC1` (some centres undefined), the IC50 on Melanocortin receptor 4 [1] is 0.019 µM; in experiment [4], more than 1.4 µM; against Melanocortin receptor 3, more than 10 µM. For the same molecule, the Activation at Melanocortin receptor 4 [2] came out at 90%. Further, the EC50 on Melanocortin receptor 4 [3] was determined as 0.34 µM.

`CC(C)CCN1CCN(C(=O)C[C@H](Cc2ccc(Cl)cc2)C(=O)N2CCN(c3ccccc3N(CC3CC3)S(C)(=O)=O)CC2)CC1` gave an IC50 on Melanocortin receptor 4 [1] of 0.0048 µM. Moreover, on Melanocortin receptor 4 [2], the Activation was 0%. On Melanocortin receptor 4 [3], this molecule came in with an EC50 of more than 10 µM.

`CS(=O)(=O)N(CC1CC1)c1ccccc1N1CCN(C(=O)[C@H](CC(=O)N2CCN(C(=O)c3ccccc3)CC2)Cc2ccc(Cl)cc2)CC1` yielded an IC50 on Melanocortin receptor 4 [1] of 0.0044 µM. For the same molecule, the Activation at Melanocortin receptor 4 [2] was determined as 55%. The molecule further gave a concentration for a half-maximal effect (EC50) on Melanocortin receptor 4 [3] of 0.083 µM.

Turning to `CCOC(=O)N1CCN(C(=O)C[C@H](Cc2ccc(Cl)cc2)C(=O)N2CCN(c3ccccc3N(CC3CC3)S(C)(=O)=O)CC2)CC1`, the results for the IC50 (on Melanocortin receptor 4 [1]; in experiment [4]; on Melanocortin receptor 3) were 0.0014 µM, more than 10 µM and more than 10 µM, respectively. In addition, at Melanocortin receptor 4 [2], the Activation is 0%. The EC50 on Melanocortin receptor 4 [3] was more than 10 µM.

Regarding `CS(=O)(=O)N(CC1CC1)c1ccccc1N1CCN(C(=O)[C@@H](Cc2ccc(Cl)cc2)NC(=O)C2CCNCC2)CC1`, the IC50 on Melanocortin receptor 4 [1] is 0.13 µM. Besides, at Melanocortin receptor 4 [2], the Activation was more than 90%. In addition, the EC50 at Melanocortin receptor 4 [3] was less than 0.0001 µM.

As to `CS(=O)(=O)N1CC2(CCN(C(=O)[C@@H](Cc3ccc(Cl)cc3)NC(=O)[C@H]3Cc4ccccc4CN3)CC2)c2ccccc21`, the IC50 on Melanocortin receptor 4 [1] was determined as 0.066 µM; in experiment [4] it was 0.153 µM; against Melanocortin receptor 3, 2.9 µM. This molecule displayed an Activation on Melanocortin receptor 4 [2] of 100%. At Melanocortin receptor 4 [3], this molecule returned an EC50 of 0.0052 µM.

The molecule `CCN1CCN(C(=O)C[C@H](Cc2ccc(Cl)cc2)C(=O)N2CCN(c3ccccc3N(CC3CC3)S(C)(=O)=O)CC2)CC1` displayed a half-inhibitory concentration (IC50) at Melanocortin receptor 4 [1] of 0.0095 µM. On Melanocortin receptor 4 [2], the Activation was 0%. In addition, the EC50 on Melanocortin receptor 4 [3] is more than 10 µM.

On to `CS(=O)(=O)N(CC1CC1)c1ccccc1N1CCN(C(=O)[C@H](CC(=O)N2CCNCC2)Cc2ccc(Cl)cc2)CC1`, for which the values for the IC50 (on Melanocortin receptor 4 [1]; in experiment [4]; against Melanocortin receptor 3) were 0.22 µM, more than 8 µM and more than 8 µM, respectively. The same molecule came in with an Activation on Melanocortin receptor 4 [2] of 70%. Besides, at Melanocortin receptor 4 [3], the EC50 worked out at 2 µM.

As to `CC(C)(C)OC(=O)N1CCN(C(=O)C[C@H](Cc2ccc(Cl)cc2)C(=O)N2CCN(c3ccccc3N(CC3CC3)S(C)(=O)=O)CC2)CC1`, the IC50 on Melanocortin receptor 4 [1] was 0.0033 µM; in experiment [4], more than 10 µM; at Melanocortin receptor 3, more than 3.5 µM. The same molecule gave an Activation at Melanocortin receptor 4 [2] of 0%. This molecule also yielded an EC50 on Melanocortin receptor 4 [3] of more than 10 µM.

With `CCN(C(C)=O)C(C)c1ccccc1N1CCN(C(=O)[C@H](CC(=O)NC2CCC2)Cc2ccc(Cl)cc2)CC1` (some centres undefined), the IC50 at Melanocortin receptor 4 [1] is 0.0058 µM; in experiment [4], more than 0.6 µM; on Melanocortin receptor 3, more than 10 µM. Further, on Melanocortin receptor 4 [2], the Activation was 100%. In addition, the midpoint of the response on Melanocortin receptor 4 [3], the EC50, lay at 0.015 µM.

On Melanocortin receptor 4 [1], `CCN(C(C)=O)C(C)c1ccccc1N1CCN(C(=O)[C@H](CC(=O)N2CCSC2)Cc2ccc(Cl)cc2)CC1` (some centres undefined) showed an IC50 of 0.0094 µM. Moreover, the Activation at Melanocortin receptor 4 [2] came to 80%. The molecule further showed a concentration for a half-maximal effect (EC50) on Melanocortin receptor 4 [3] of 0.53 µM.

For `CCN(C(C)=O)C(C)c1ccccc1N1CCN(C(=O)[C@H](CC(=O)N2CCN(C(=O)OC(C)(C)C)CC2)Cc2ccc(Cl)cc2)CC1` (some centres undefined), at Melanocortin receptor 4 [1], the IC50 turned out to be 0.002 µM. On Melanocortin receptor 4 [2], this molecule gave an Activation of 0%. In addition, on Melanocortin receptor 4 [3], the EC50 was more than 10 µM.

The IC50 is the midpoint of a concentration-inhibition curve. Broadly, the EC50 is the concentration giving half of the maximal effect. Lower therefore signals a more potent agent.
